One experiment relates to THP-1 cells. Kind of experiment: LPS-induced inflammation in THP-1 cells (MSD V-PLEX cytokines), Example 25. It counts as cell-based, human. The settings on record: Candesartan 1 μg/mL; 500 ng LPS; 24 hours. The method, then: A composition comprising […] was prepared as described in Example 23 and sterile filtered, referred to as Composition […]. 300,000 THP-1 cells were plated per well. Control wells included media only. Cells were contacted with LPS and test articles as outlined in Tables 20 and 21. For a positive control, cells were administered 1.0 μg/mL Candesartan. Candesartan is a […] and known to reduce the production of cytokines. Specifically, candesartan is an angiotensin receptor subtype 1 inhibitor and was utilized as a positive control. The cells were incubated for 1 hour. The cells were incubated, and samples of the supernatant were collected at 4 hours and 24 hours. The remaining cells were collected and analyzed for total cell count and percent viability. The Meso Scale Discovery (MSD; Rockville, […]) V-PLEX kit (4-PLEX) with IL-1b, IL-6, IL-8, and TNF-α were used to analyze the cytokines in the media at 4 and 24 hours after LPS stimulation.

For experiment [1], the system named is normal human dermal fibroblasts (NHDF) cells. Kind of experiment: Scratch assay (in vitro wound closure). Format: cell-based. The settings on record: 3.7 ng/mL PDGF-BB, positive control. How it is done:
The test articles are outlined in Table 30 below. Briefly, AHPPDP was prepared based on the methods disclosed herein.
3,000 normal human dermal fibroblasts (NHDF) cells were plated per well. […] Vehicle at 9% concentration was the negative control.
The output measures of the scratch assay were, total number of nuclei per well, sum of cell area per well, and sum of empty area per well.

For `CCOc1nc2cccc(C(=O)O)c2n1Cc1ccc(-c2ccccc2-c2nnn[nH]2)cc1` [Candesartan], in the experiment on THP-1 cells, the IL1-beta came out at 0 pg/mL, the IL-6 is listed as 0 pg/mL, the IL-8 is given as 1.44 pg/mL and the TNF-alpha is given as 0 pg/mL.

B1: PDGF-BB: PDGF-BB in cell media, positive control of the scratch assay (protein, UniProt P01127 82-190, looked up)
Platelet-derived growth …: SLGSLTIAEPAMIAECKTRTEVFEISRRLIDRTNANFLVWPPCVEVQRCSGCCNNRNVQCRPTQVQLRPVQVRKIEIVRKKPIFKKATVTLEDHLACKCETVAAARPVT
On to B1, for which the wound healing entry in experiment [1] is reported as “Wound healing compared to vehicle condition was obtained”.

For the origin of these results see patent US12576109B2, “Allogeneic human plasma and platelet derived products and uses thereof” (Consano Bio, Inc., priority 2024, dated 2026).
